GI50 and TGI data for 20 molecules are collected here from PubChem BioAssay (NCI).

Where “and” joins values, the source holds several entries; their conditions need not be identical. Equal entries are not always repeated.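 In this assay, cells in 96-well plates receive the compound at five concentrations for 48 hours. Endpoints are linearly interpolated between the surrounding concentrations. GI50: concentration for 50% inhibition of growth. Definition used: TGI = concentration required for complete inhibition of growth.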

Experiment in all cases: growth of human tumour cells (NCI), 48 h
Assay [1] relates to NCI/ADR-RES ovarian.
Assay [2] has as its system U251 CNS.
The subject of assay [3] is SN12C renal.
For assay [4], the system named is UACC-257 melanoma.
Assay [5] deals with SF-268 CNS.
Assay [6] relates to SF-295 CNS.
Assay [7] has as its system SF-539 CNS.
Assay [8] deals with OVCAR-4 ovarian.
Assay [9] has as its system HOP-92 NSCLC.
The subject of assay [10] is RPMI-8226 leukemia.

Turning to `Cc1c2c(nn1C)CSCc1cc(n(C)n1)CSc1cc(c3ccccc3c1)OCCCc1c(C(=O)O)n(C)c3c-2c(Cl)ccc13`, the GI50 in assay [1] was 14.2 µM; in [2], 4.05 µM; in assay [3], 3.38 µM; in assay [4] it was 4.16 µM; in assay [5], 4.42 µM; in assay [6] it was 2.52 µM. The GI50 in [7] is 1.53 µM; in [8] it was 6.76 µM; in assay [9], 2.46 µM; in assay [10], 0.0401 µM. In addition, the TGI came to 30 µM in [1]; 13.7 µM in assay [2]; 12.6 µM in assay [3]; 16 µM in assay [4]; 16.3 µM in assay [5]; 8.37 µM in assay [6]. Further, the TGI was determined as 7.33 µM in assay [7], 22.9 µM in assay [8], 10.2 µM in assay [9] and 1.33 µM in [10].

Take `COc1ccc(OC)c(-c2c(C#N)c(N)nc(N3CCOCC3)c2C#N)c1`: the GI50 was greater than 100 µM in assay [1]; greater than 100 µM in assay [2]; 73 µM in assay [3]; 39.4 µM in [4]; greater than 100 µM in assay [5]; greater than 100 µM in assay [6]. Further, the GI50 in assay [7] is greater than 100 µM; in assay [8], 43.6 µM; in assay [9], 82.5 µM; in assay [10], greater than 100 µM. The TGI in assay [1], in [2], in assay [3], in [4], in assay [5] and in assay [6] was greater than 100 µM in each case. Also, the TGI in assay [7], in assay [8], in [9] and in [10] was greater than 100 µM in each case.

For the molecule `Nc1ncnc2c1nnn2C1CCC(CP(=O)(O)O)C1` (centres undefined), the TGI in assay [1], in assay [2], in [3], in [4], in assay [5] and in assay [6] was greater than 100 µM in each case. Moreover, the TGI in [7], in assay [8], in assay [9] and in assay [10] was greater than 100 µM in each case.

Regarding `O=C1c2c(O)cccc2C(C2OC(CO)C(O)C(O)C2O)c2cc(CO)cc(O)c21` (centres undefined), the TGI in [1], in [2], in assay [3], in [4], in [5] and in assay [6] was greater than 100 µM each time. Further, the TGI in [7], in assay [8], in assay [9] and in [10] was greater than 100 µM in each case.

In the case of `CCOc1cc2ncc(C#N)c(Nc3ccc(OCc4ccccn4)c(Cl)c3)c2cc1NC(=O)/C=C/CN(C)C`, the GI50 in assay [1] was 1.17 µM and 1.2 µM; in [2], 0.899 µM and 1.37 µM; in [3], 0.274 µM and 0.236 µM; in assay [4], 1.41 µM and > 4.55 µM; in assay [5] it was 0.563 µM; in assay [6], 10.9 µM and > 4.59 µM. The GI50 is 4.24 µM and > 4.3 µM in assay [7]; 0.49 µM and 0.48 µM in assay [8]; 1.11 µM and 0.695 µM in [10]. Further, the TGI is 4.49 µM and > 8.87 µM in assay [1]; 2.29 µM and > 10 µM in [2]; 4.6 µM and > 10 µM in assay [3]; 4.27 µM and > 10 µM in assay [4]; greater than 10 µM in assay [5]; 34.7 µM and > 10 µM in assay [6]. Besides, the TGI in [7] was 11.5 µM and > 9.31 µM; in assay [8], 2.44 µM and > 10 µM; in assay [9] it was 22.8 µM and 4.06 µM; in [10], 4.38 µM and 3.79 µM.

For `O=C(COc1ccc(/C=C2\Oc3ccccc3C2=O)cc1)Nc1nc2c(s1)CCCC2`, the GI50 in assay [1] was 2.19 µM; in assay [2] it was 2.29 µM; in [3] it was 4.64 µM; in assay [4], 0.0449 µM; in assay [6] it was 10.1 µM; in [7], 0.622 µM. In addition, the GI50 in assay [8] was 13.1 µM; in [9], 0.212 µM; in [10], 0.261 µM. In addition, the TGI in [1] is greater than 59.1 µM; in [2], greater than 100 µM; in assay [3], greater than 92 µM; in [4] it was 0.835 µM; in assay [6], 43.9 µM; in assay [7], 1.4 µM. In addition, the TGI was greater than 100 µM in assay [8], 2.53 µM in assay [9] and 1.12 µM in assay [10].

On to `CC[N+]1(C)CCC(O)(c2ccc(Cl)c(Cl)c2)C(C(=O)c2ccc(Cl)c(Cl)c2)C1` (centres undefined), for which the TGI in [1], in assay [2], in assay [3], in [4], in [5] and in assay [6] was greater than 10 µM in each case. Further, the TGI in assay [7], in assay [8], in assay [9] and in assay [10] was greater than 10 µM in each case.

Turning to `O=C1c2ccccc2-c2c1c1ccccc1c(=O)n2CCN1CCOCC1`, the GI50 in assay [1] was greater than 100 µM; in assay [2], 52.4 µM; in [3] it was 94.1 µM; in assay [4], greater than 100 µM; in assay [5] it was greater than 100 µM; in [6], 48.1 µM. The GI50 is 84.9 µM in assay [7], greater than 100 µM in assay [8], greater than 100 µM in assay [9] and 39 µM in assay [10]. Further, the TGI in assay [1], in assay [2], in [3], in assay [4], in assay [5] and in assay [6] was greater than 100 µM each time. In addition, the TGI in assay [7], in [8], in assay [9] and in [10] was greater than 100 µM in each case.

As to `O=C(NC[C@H](O)CO)c1ccncc1Nc1ccc(I)cc1F`, the GI50 is > 10 µM and 35 µM in assay [1]; 1.84 µM and 4.92 µM in [2]; > 7.13 µM and 7.74 µM in assay [3]; 0.00359 µM and < 0.01 µM in [4]; > 10 µM and 29.9 µM in [5]; greater than 41 µM in assay [6]. In addition, the GI50 was > 10 µM and 23.2 µM in assay [7]; > 7.46 µM and 10.6 µM in assay [8]; 0.0509 µM and 0.0379 µM in [9]; > 10 µM and 28.4 µM in [10]. Also, the TGI is greater than 100 µM in [1]; greater than 100 µM in assay [2]; greater than 100 µM in assay [3]; 0.0403 µM and 0.0438 µM in assay [4]; greater than 100 µM in [5]; greater than 100 µM in assay [6]. The TGI in assay [7] is greater than 100 µM; in assay [8], greater than 100 µM; in assay [9] it was 1.2 µM and 3.61 µM; in assay [10], greater than 100 µM.

Turning to `CC1(C)CC(C)(C)C1=NNC(N)=O`, the TGI in [1], in assay [2], in assay [3], in assay [4], in assay [5] and in assay [6] was greater than 100 µM each time. Moreover, the TGI in assay [7], in [8] and in [9] was greater than 100 µM throughout.

`N#Cc1c(-c2ccc(Cl)cc2)c2c(n(C3OC(CO)C(O)C(O)C3O)c1=S)CCC2` (centres undefined): the TGI is greater than 100 µM in assay [1]; 84.9 µM in assay [2]; greater than 100 µM in assay [3]; 87.2 µM in [4]; 84.7 µM in assay [5]; 42.3 µM in assay [7]. Besides, the TGI is greater than 100 µM in [8], 60.7 µM in [9] and greater than 100 µM in assay [10].

`O=C(Nc1ccc(Cl)c(Cl)c1)O/N=C\c1c(Cl)ccc([N+](=O)[O-])c1Cl`: the GI50 in assay [1] was 4.33 µM; in assay [2], 1.68 µM; in [3], 2.59 µM; in [4], 1.46 µM; in assay [5] it was 2.81 µM; in assay [6] it was 2.8 µM. Moreover, the GI50 is 2.64 µM in [7], 1.74 µM in assay [8] and 1.62 µM in assay [10]. Further, the TGI in [1] was 17.2 µM; in assay [2], 3.14 µM; in [3], 8.52 µM; in assay [4], 2.86 µM; in assay [5] it was 9.63 µM; in assay [6] it was 8.14 µM. Moreover, the TGI in assay [7] worked out at 8.36 µM; in assay [8], 3.14 µM; in assay [10], 4.3 µM.

Take `CC1(C)C2C=CC1(C)C1(CC2)OCCO1` (centres undefined): the TGI in [1], in assay [2], in assay [3], in [4], in assay [5] and in assay [6] was greater than 100 µM throughout. Further, the TGI in assay [7], in assay [8] and in assay [10] was greater than 100 µM each time.

In the case of `COc1ccc(/C=C2\S/C(=N/Nc3nc(-c4ccccc4)cs3)NC2=O)cc1OC`, the TGI in [1] was 49.8 µM; in assay [2], 87.2 µM; in assay [3], greater than 100 µM; in [4], greater than 100 µM; in [5], greater than 100 µM; in assay [6], 86.3 µM. Besides, the TGI in [7] was determined as 71.4 µM; in [8], 98.1 µM; in assay [9], 35.2 µM.

As for `CC#CC(=O)SCCNC(=O)CC`, the TGI in assay [1], in assay [2], in assay [3], in assay [4], in assay [5] and in [6] was greater than 10 µM each time. Also, the TGI in [7], in [8] and in assay [10] was greater than 10 µM in each case.

As for `O=CN/C=C/c1ccc(O)c(O)c1`, the TGI in [2], in assay [3], in assay [4], in [5], in [6] and in assay [7] was greater than 100 µM in each case. Also, the TGI in assay [8], in [9] and in [10] was greater than 100 µM each time.

For `NC(=O)c1c(NC(=O)c2ccc3c(c2)OCO3)sc2c1CCC(=O)C2`, the GI50 was 2.2 µM in assay [1]; 0.467 µM in [2]; 3.03 µM in [3]; 1.88 µM in assay [5]; 2.31 µM in assay [6]; 0.494 µM in [8]. For the same molecule, the GI50 in [9] was 1.65 µM; in assay [10], 0.339 µM. For the same molecule, the TGI was greater than 100 µM in assay [1]; greater than 100 µM in [2]; greater than 100 µM in [3]; greater than 100 µM in [5]; 6.71 µM in assay [6]; 1.79 µM in assay [8]. The figures for the TGI in [9] and in assay [10] were 5.91 µM and 1.6 µM, respectively.

For the molecule `Cc1cc(Cl)ccc1NC(=O)CC/C(CC(=O)C(C)C)=N\NC(=O)C[n+]1ccccc1`, the TGI in [2], in assay [3], in [4], in [5], in assay [6] and in assay [7] was greater than 100 µM each time. Moreover, the TGI in [8], in assay [9] and in assay [10] was greater than 100 µM each time.

Turning to `CCCOC(=O)N1CCN(/[N+]([O-])=N/Oc2ccc([N+](=O)[O-])cc2[N+](=O)[O-])CC1`, the GI50 in [1] is 3.31 µM; in [2], 2.03 µM; in assay [3] it was 2.58 µM; in assay [4], 9.52 µM; in assay [5], 3.19 µM; in [6] it was 3.76 µM. For the same molecule, the GI50 in [7] is 0.273 µM; in [10], 0.49 µM. The TGI in assay [1] was greater than 100 µM; in assay [2], 3.96 µM; in assay [3] it was 6.94 µM; in [4] it was 24.2 µM; in assay [5] it was 11.1 µM; in assay [6], 14.9 µM. The figures for the TGI in assay [7] and in [10] were 0.648 µM and 2.41 µM, respectively.

Consider `COc1ccc(C(C#N)Cc2cc(OC)c(OC)c(OC)c2)cc1` (centres undefined), for which the TGI in [2] is greater than 100 µM; in assay [3], greater than 100 µM; in [4], greater than 100 µM; in assay [5], greater than 100 µM; in assay [6], 54.4 µM; in [7], greater than 100 µM. Besides, the TGI in assay [8], in assay [9] and in assay [10] was greater than 100 µM throughout.
